Data taken from ChEMBL document CHEMBL5543116, “Discovery of DNL343: A Potent, Selective, and Brain-Penetrant eIF2B Activator Designed for the Treatment of Neurodegenerative Diseases” (J Med Chem, 2024).
≈ marks a conversion by molar mass, not a printed value. Calls of active or inactive are those of the source. The calls are words filed in the database; no cut-off is given here.

What was measured:
[1] = Lipophilicity, log D of the compound at pH 7.4; type: physicochemical; conditions: buffer
[2] = Kinetic solubility of compound; type: physicochemical; conditions: read-out: Kinetic_solubility
[3] = Metabolic stability in human liver microsome assessed as hepatic clearance; type: ADME; conditions: liver microsomes
[4] = Metabolic stability in rat liver microsome assessed as hepatic clearance; type: ADME; conditions: liver microsomes
[5] = Clearance in rat at 1 mg/kg, iv by LC-MS/MS analysis; type: ADME, organism-based; conditions: in vivo
[6] = Volume of distribution at steady state in rat at 1 mg/kg, iv by LC-MS/MS analysis; type: ADME, organism-based; conditions: in vivo, read-out: Vdss
[7] = Half life in rat at 1 mg/kg, iv by LC-MS/MS analysis; type: ADME, organism-based; conditions: in vivo
[8] = Oral bioavailability in rat at 3 mg/kg by LC-MS/MS analysis; type: ADME, organism-based; conditions: in vivo
[9] = Oral bioavailability in dog at 1 mg/kg; type: ADME, organism-based, Canis lupus familiaris; conditions: in vivo
[10] = Oral bioavailability in rat at 3 mg/kg; type: ADME, organism-based; conditions: in vivo
[11] = Metabolic stability in rat liver microsome assessed as clearance; type: ADME; conditions: liver microsomes
[12] = Clearance in rat at 1 mg/kg, iv; type: ADME, organism-based; conditions: in vivo
[13] = Clearance in dog at 0.5 mg/kg, iv; type: ADME, organism-based, Canis lupus familiaris; conditions: in vivo
[14] = Clearance in cynomolgus monkey at 0.5 mg/kg, iv; type: ADME, organism-based, Macaca fascicularis; conditions: in vivo
[15] = Volume of distribution at steady state in rat at 1 mg/kg, iv; type: ADME, organism-based; conditions: in vivo, read-out: Vdss
[16] = Volume of distribution at steady state in dog at 0.5 mg/kg, iv; type: ADME, organism-based, Canis lupus familiaris; conditions: in vivo, read-out: Vdss
[17] = Volume of distribution at steady state in cynomolgus monkey at 0.5 mg/kg, iv; type: ADME, organism-based, Macaca fascicularis; conditions: in vivo, read-out: Vdss
[18] = Half life in rat at 1 mg/kg, iv; type: ADME, organism-based; conditions: in vivo
[19] = Half life in dog at 0.5 mg/kg, iv; type: ADME, organism-based, Canis lupus familiaris; conditions: in vivo
[20] = Half life in cynomolgus monkey at 0.5 mg/kg, iv; type: ADME, organism-based, Macaca fascicularis; conditions: in vivo
[21] = Oral bioavailability in cynomolgus monkey at 1 mg/kg; type: ADME, organism-based, Macaca fascicularis; conditions: in vivo
[22] = Ratio of unbound drug concentration in rat brain to plasma at 3 mg/kg, po; type: ADME, organism-based
[23] = Ratio of unbound drug concentration in cynomolgus monkey brain to plasma at 0.5 mg/kg, po measured after 6 hrs; type: ADME, organism-based, Macaca fascicularis
[24] = biological target: T1, Nuclear receptor subfamily 1 group I member 2 (Homo sapiens, UniProt O75469); assay: Activation of PXR (unknown origin)
T1 sequence (O75469 whole entry): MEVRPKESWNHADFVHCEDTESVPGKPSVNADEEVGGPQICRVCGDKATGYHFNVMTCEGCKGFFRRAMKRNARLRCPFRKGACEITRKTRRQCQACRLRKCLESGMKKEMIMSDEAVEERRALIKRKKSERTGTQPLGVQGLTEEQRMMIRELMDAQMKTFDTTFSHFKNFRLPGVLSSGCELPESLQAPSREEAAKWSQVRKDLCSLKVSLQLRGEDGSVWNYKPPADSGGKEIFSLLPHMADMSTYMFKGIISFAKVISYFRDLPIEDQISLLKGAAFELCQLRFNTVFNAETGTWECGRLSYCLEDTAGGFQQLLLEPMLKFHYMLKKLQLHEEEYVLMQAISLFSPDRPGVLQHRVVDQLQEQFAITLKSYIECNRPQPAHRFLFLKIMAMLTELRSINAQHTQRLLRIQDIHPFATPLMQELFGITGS

[25] = biological target: T2, Nuclear receptor subfamily 1 group I member 3 (Homo sapiens, UniProt Q14994); assay: Activation of CAR (unknown origin)
T2 sequence (Q14994 whole entry): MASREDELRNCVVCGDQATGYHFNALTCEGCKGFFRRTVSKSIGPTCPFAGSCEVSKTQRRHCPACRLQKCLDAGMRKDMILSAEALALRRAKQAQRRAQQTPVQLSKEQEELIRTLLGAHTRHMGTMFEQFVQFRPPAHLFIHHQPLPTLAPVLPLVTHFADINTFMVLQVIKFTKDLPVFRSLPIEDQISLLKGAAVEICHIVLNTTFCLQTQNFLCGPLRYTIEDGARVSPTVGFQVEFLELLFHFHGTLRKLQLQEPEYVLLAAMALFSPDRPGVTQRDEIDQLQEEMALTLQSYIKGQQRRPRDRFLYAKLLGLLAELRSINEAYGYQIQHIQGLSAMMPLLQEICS

[26] = biological target: T3, Aryl hydrocarbon receptor (Homo sapiens, UniProt P35869); assay: Activation of AHR (unknown origin)
T3 sequence (P35869 whole entry): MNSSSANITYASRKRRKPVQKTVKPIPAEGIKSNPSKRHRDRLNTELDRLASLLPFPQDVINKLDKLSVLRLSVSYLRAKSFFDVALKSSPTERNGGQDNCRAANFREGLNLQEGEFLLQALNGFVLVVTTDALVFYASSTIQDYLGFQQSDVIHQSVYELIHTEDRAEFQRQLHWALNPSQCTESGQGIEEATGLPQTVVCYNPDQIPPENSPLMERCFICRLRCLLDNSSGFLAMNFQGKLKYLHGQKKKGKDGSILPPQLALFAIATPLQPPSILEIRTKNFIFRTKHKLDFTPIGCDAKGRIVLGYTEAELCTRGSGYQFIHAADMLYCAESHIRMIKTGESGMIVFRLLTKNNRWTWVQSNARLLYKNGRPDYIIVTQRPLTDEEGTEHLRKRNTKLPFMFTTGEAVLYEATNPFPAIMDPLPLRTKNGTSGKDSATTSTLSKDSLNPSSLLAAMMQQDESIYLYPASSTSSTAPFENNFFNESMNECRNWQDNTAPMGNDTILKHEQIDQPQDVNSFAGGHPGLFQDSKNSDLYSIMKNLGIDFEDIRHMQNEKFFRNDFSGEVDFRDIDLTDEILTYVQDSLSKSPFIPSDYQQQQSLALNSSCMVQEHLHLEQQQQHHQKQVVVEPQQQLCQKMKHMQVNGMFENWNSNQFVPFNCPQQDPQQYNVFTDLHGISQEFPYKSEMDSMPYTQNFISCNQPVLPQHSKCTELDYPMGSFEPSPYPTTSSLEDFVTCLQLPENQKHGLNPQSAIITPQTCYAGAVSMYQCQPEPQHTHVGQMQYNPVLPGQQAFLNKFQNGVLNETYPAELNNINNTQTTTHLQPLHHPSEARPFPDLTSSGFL

[27] = biological target: Voltage-gated inwardly rectifying potassium channel KCNH2 (Homo sapiens, UniProt Q12809); assay: Inhibition of hERG manual patch clamp assay; type: toxicity
H4 = assay: Neuroprotective activity against NaAsO2-induced human H4 cells expressing GFP TDP43 (86 to 414 residues) assessed as decrease in TDP43 accumulation incubated for 2 hrs by DAPI staining based microscopic analysis; type: functional, cell-based; conditions: H4, 2 h
Mus musculus [28] = assay: Neuroprotective activity against Eif 2bS R191H […] mouse model assessed as reduction in trib3 level in brain at 50 mg/kg, po administered for 2 days; type: functional, organism-based; conditions: time 2.0 day
Mus musculus [29] = assay: Neuroprotective activity against Eif 2bS R191H […] mouse model assessed as reduction in Slc1a5 level in brain at 50 mg/kg, po administered for 2 days; type: functional, organism-based; conditions: time 2.0 day
Mus musculus [30] = assay: Neuroprotective activity against Eif 2bS R191H […] mouse model assessed as reduction in Eif4ebp1 level in brain at 50 mg/kg, po administered for 2 days; type: functional, organism-based; conditions: time 2.0 day
Mus musculus [31] = assay: Neuroprotective activity against Eif 2bS R191H […] mouse model assessed as reduction in mthfd2 level in brain at 50 mg/kg, po administered for 2 days; type: functional, organism-based; conditions: time 2.0 day
Mus musculus [32] = assay: Neuroprotective activity against Eif 2bS R191H […] mouse model assessed as reduction in Sic7a5 level in brain at 50 mg/kg, po administered for 2 days; type: functional, organism-based; conditions: time 2.0 day
Mus musculus [33] = assay: Neuroprotective activity against Eif 2bS R191H […] mouse model assessed as reduction in Chac1 level in brain at 50 mg/kg, po administered for 2 days; type: functional, organism-based; conditions: time 2.0 day
Mus musculus [34] = assay: Neuroprotective activity against Eif 2bS R191H […] mouse model assessed as reduction in Atf3 level in brain at 50 mg/kg, po administered for 2 days; type: functional, organism-based; conditions: time 2.0 day
Mus musculus [35] = assay: Neuroprotective activity against Eif 2bS R191H […] mouse model assessed as reduction in Sensn2 level in brain at 50 mg/kg, po administered for 2 days; type: functional, organism-based; conditions: time 2.0 day
Mus musculus [36] = assay: Neuroprotective activity against Eif 2bS R191H […] mouse model assessed as reduction in Sic7a11 level in brain at 50 mg/kg, po administered for 2 days; type: functional, organism-based; conditions: time 2.0 day
Mus musculus [37] = assay: Neuroprotective activity against Eif 2bS R191H […] mouse model assessed as reduction in Atf4 level in brain at 50 mg/kg, po administered for 2 days; type: functional, organism-based; conditions: time 2.0 day
Mus musculus [38] = assay: Neuroprotective activity against Eif 2bS R191H […] mouse model assessed as reduction in Ddit3 level in brain at 50 mg/kg, po administered for 2 days; type: functional, organism-based; conditions: time 2.0 day
Mus musculus [39] = assay: Neuroprotective activity against Eif 2bS R191H […] mouse model assessed as reduction in Psat1 level in brain at 50 mg/kg, po administered for 2 days; type: functional, organism-based; conditions: time 2.0 day
Mus musculus [40] = assay: Neuroprotective activity against Eif 2bS R191H […] mouse model assessed as reduction in asns level in brain at 50 mg/kg, po administered for 2 days; type: functional, organism-based; conditions: time 2.0 day
Mus musculus [41] = assay: Neuroprotective activity against Eif 2bS R191H […] mouse model assessed as reduction in ppp1r15a level in brain at 50 mg/kg, po administered for 2 days; type: functional, organism-based; conditions: time 2.0 day

Chain of Voltage-gated inwardly rectifying potassium channel KCNH2 (Q12809 whole entry, the tested form may be a part): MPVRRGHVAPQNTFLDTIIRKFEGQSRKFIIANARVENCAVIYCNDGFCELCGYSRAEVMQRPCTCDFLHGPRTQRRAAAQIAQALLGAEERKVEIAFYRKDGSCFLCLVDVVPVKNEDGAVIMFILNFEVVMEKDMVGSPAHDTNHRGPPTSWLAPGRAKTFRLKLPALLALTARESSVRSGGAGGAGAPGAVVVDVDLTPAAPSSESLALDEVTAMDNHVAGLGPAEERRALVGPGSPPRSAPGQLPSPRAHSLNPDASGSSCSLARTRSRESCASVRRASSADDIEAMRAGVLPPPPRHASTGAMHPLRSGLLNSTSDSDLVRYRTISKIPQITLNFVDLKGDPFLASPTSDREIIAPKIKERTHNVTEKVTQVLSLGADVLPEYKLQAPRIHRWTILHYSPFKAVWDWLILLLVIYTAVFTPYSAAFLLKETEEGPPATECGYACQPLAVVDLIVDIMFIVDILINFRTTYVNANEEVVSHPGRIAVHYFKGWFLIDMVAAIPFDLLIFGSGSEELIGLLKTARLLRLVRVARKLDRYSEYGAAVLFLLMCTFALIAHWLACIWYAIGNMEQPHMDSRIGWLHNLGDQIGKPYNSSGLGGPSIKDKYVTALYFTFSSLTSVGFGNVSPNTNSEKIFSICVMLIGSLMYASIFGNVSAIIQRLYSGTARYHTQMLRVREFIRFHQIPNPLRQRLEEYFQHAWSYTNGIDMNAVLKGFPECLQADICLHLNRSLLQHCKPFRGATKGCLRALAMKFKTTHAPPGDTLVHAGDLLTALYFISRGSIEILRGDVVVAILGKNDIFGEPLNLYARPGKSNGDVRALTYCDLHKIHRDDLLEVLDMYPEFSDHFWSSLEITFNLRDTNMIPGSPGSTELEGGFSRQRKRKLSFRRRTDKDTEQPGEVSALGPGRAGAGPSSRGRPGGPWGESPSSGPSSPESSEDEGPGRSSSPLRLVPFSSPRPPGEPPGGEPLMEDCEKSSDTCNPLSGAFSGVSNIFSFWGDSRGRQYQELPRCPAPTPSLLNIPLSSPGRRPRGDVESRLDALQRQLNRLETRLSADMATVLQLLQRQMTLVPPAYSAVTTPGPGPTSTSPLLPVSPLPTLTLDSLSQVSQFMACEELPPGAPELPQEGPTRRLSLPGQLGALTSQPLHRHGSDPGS

O=C(COc1ccc(Cl)cc1)NC12CC(NC(=O)COc3ccc(Cl)cc3)(C1)C2
logD [1]: 2.9
solubility kinetic [2]: 2 µM (≈ 0.871 µg/mL)

O=C(COc1ccc(Cl)cc1)NC1CCN(C(=O)COc2ccc(Cl)cc2)CC1
logD [1]: 3.3
solubility kinetic [2]: 5 µM (≈ 2.19 µg/mL)

O=C(COc1ccc(F)cc1)NC12CC(c3nnc([C@H]4C[C@@H](OC(F)(F)F)C4)o3)(C1)C2
CLhep predicted [3]: < 0.36 L/h/kg

O=C(COc1ccc(Cl)cc1)NC12CC(c3nnc([C@H]4C[C@@H](OC(F)(F)F)C4)o3)(C1)C2 [EVETIFATOR]
CLhep predicted [3]: < 0.36 L/h/kg
CLhep predicted [4]: < 1.02 L/h/kg
clearance [5]: 0.024 L/h/kg
Vd [6]: 0.31 L/kg
half-life [7]: 12.5 h
bioavailability [8]: 65%
bioavailability [9]: > 99%
bioavailability [10]: 56%
CLhep predicted [11]: < 1.02 L/h/kg
clearance [12]: 0.024 L/h/kg
clearance [13]: 0.288 L/h/kg
clearance [14]: 0.174 L/h/kg
Vd [15]: 0.31 L/kg
Vd [16]: 2.7 L/kg
Vd [17]: 1.9 L/kg
half-life [18]: 12.5 h
half-life [19]: 7.4 h
half-life [20]: 7.6 h
bioavailability [21]: > 99%
K(p,uu,brain) [22]: 0.8
K(p,uu,brain) [23]: 0.9
Activity [24]: Not Active
Activity [25]: Not Active
Activity [26]: Not Active
IC50 [27]: 3 µM
IC50 (H4): 0.0125 µM
Activity (Mus musculus [28]): Active
Activity (Mus musculus [29]): Active
Activity (Mus musculus [30]): Active
Activity (Mus musculus [31]): Active
Activity (Mus musculus [32]): Active
Activity (Mus musculus [33]): Active
Activity (Mus musculus [34]): Active
Activity (Mus musculus [35]): Active
Activity (Mus musculus [36]): Active
Activity (Mus musculus [37]): Active
Activity (Mus musculus [38]): Active
Activity (Mus musculus [39]): Active
Activity (Mus musculus [40]): Active
Activity (Mus musculus [41]): Active

O=C(COc1ccc(Cl)cc1)N[C@H]1CC[C@H](NC(=O)COc2ccc(Cl)cc2)CC1
logD [1]: 3.7
solubility kinetic [2]: < 1 µM

O=C(COc1ccc(Cl)cc1)NC12CC(NC(=O)COC3CCCC3)(C1)C2
logD [1]: 3.4
solubility kinetic [2]: 34 µM (≈ 13.4 µg/mL)

O=C(COc1ccc(C(F)(F)F)cc1)NC12CC(c3nnc([C@H]4C[C@@H](OC(F)(F)F)C4)o3)(C1)C2
CLhep predicted [3]: < 0.36 L/h/kg
CLhep predicted [4]: < 1.02 L/h/kg
clearance [5]: 0.024 L/h/kg
Vd [6]: 0.26 L/kg
half-life [7]: 22.9 h
bioavailability [8]: 39%

O=C(COCC1CCC1)NC12CC(NC(=O)COc3ccc(Cl)cc3)(C1)C2
logD [1]: 3.6
solubility kinetic [2]: 19 µM (≈ 7.46 µg/mL)

O=C(NC12CC(c3nnc([C@H]4C[C@@H](OC(F)(F)F)C4)o3)(C1)C2)c1cnc2cc(Cl)ccc2c1
CLhep predicted [3]: 0.66 L/h/kg

O=C(NC12CC(c3nnc([C@H]4C[C@@H](OC(F)(F)F)C4)o3)(C1)C2)c1nc2cc(Cl)ccc2o1
CLhep predicted [3]: < 0.36 L/h/kg
